SMILES strings stand for the structures.

What all share (type): cell-based
One data set relates to L-type calcium channels. The experiment in a line: FLIPR L-type Calcium Channel Assay (calcium influx in HL-1 cells after KCl). The following applies: read-out: L-type Ca2+ IC50. Here is the method:
HL-1 cells expressing endogenous L-type calcium channels are removed from culture flasks using trypsin, plated on fibronectin/gelatin-coated, clear-bottomed, black-walled 96-well microplates in Claycomb media (JRH Biosciences #51800) containing 10% fetal bovine serum, 4 mM L-glutamine, and 10 μM norepinephrine, and grown to confluency overnight. The next day, growth medium is aspirated from confluent cell monolayers and replaced with 100 μL per well Tyrode's solution (in mM: 130 NaCl, 4 KCl, 1.8 CaCl2, 1.0 MgCl2, 20 HEPES, 10 glucose, pH 7.35) and 50 μL per well FLIPR Calcium Assay kit, component A (#R-8033, Molecular Devices Corporation) and incubated for 60 min. in a 5% CO2 37° C. incubator. 50 μL per well test compounds are added to the plates and further incubated for 15 min. in a 5% CO2 37° C. incubator. All final solutions contain the anion exchange inhibitor, probenecid (2.5 mM). The 96-well plates are then placed in the center position of the FLIPR 1 (Fluorometric Imaging Plate Reader, Molecular Devices Corporation). Cell monolayers in each well are simultaneously illuminated at 488 nm with an Argon ion laser, and fluorescence emission is monitored using a 510-570 nm bandpass filter and a cooled CCD camera. To depolarize the plasma membrane and activate L-type calcium channels, 50 μL per well of 20 mM KCl (final concentration) are dispensed simultaneously to all 96 wells using the FLIPR's automatic 96-well pipettor. Fluorescence measurements are captured for 5 min. following KCl addition. Calcium influx, expressed as % control, is calculated for each concentration of test compound and concentration-response curves and IC50 values are generated using GraphPad Prism 4.0.

The target in another data set is T1, HERG (Homo sapiens, UniProt Q12809).
T1 construct: expressed in transfected cells; host or cells: HEK cells
The experiment in a line: HERG Patch Clamp EP (whole cell patch clamp, tail currents; single point at 10 μM and IC50). The conditions noted are these: for inhibition at 10 µM: human, HEK cells stably overexpressing HERG, single point at 10 μM, HERG in HEK cells, read-out: HERG % Inhib. @ 10 μM; for IC50: concentration response. The source says: The external solution is standard Tyrodes solution.
In general terms: The patch-clamp technique gives a direct electrical read-out from membranes.

A further data set deals with T2, Kv1.5 (Homo sapiens, UniProt P22460).
T2 construct: expressed in transfected cells; host or cells: HEK or LTK- cells
Nature of the data set: Kv1.5 Patch Clamp EP (whole cell patch clamp; single point at 1 μM and IC50). The following applies: for IC50: concentration response; for inhibition at 1 µM: single point at 1.0 μM, Kv1.5 stably over expressed in HEK or LTK- cells. Here is the method: The external solution is standard Tyrodes solution. […] Inhibition was measured at the end of the 1 second pulses and expressed relative to controls. Initial Kv1.5 inhibition is estimated by single point determinations done at 1 μM.

T1 sequence (Q12809 whole entry): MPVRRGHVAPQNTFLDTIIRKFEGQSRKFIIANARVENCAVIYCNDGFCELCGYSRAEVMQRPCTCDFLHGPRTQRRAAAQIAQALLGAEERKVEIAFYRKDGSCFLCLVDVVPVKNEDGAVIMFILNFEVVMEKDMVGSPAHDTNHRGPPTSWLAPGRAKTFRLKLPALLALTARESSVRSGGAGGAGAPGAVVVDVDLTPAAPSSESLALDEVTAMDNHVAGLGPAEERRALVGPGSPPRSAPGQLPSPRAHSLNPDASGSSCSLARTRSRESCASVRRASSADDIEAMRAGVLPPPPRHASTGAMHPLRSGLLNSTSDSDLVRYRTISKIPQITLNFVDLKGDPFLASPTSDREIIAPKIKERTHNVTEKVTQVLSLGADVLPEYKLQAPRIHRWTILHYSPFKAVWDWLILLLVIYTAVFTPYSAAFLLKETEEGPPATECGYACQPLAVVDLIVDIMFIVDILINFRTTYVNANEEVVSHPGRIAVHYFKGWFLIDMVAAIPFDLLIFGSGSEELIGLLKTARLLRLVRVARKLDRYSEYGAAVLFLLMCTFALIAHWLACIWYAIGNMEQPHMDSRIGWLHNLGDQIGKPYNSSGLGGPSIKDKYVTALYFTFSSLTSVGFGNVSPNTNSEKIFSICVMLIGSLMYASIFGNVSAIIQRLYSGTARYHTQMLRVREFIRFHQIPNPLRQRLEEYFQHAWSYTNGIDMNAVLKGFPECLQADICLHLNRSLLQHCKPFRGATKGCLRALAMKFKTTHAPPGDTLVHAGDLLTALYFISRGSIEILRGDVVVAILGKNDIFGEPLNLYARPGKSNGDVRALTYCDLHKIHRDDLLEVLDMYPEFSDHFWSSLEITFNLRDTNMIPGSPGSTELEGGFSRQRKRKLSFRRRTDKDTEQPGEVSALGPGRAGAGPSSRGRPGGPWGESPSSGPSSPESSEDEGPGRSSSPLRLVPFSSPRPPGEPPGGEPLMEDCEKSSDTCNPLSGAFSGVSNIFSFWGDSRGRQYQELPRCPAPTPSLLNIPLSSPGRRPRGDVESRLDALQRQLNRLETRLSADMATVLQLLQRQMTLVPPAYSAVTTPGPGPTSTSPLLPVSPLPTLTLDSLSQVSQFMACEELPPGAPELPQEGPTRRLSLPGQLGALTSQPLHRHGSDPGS
T2 sequence (P22460 whole entry): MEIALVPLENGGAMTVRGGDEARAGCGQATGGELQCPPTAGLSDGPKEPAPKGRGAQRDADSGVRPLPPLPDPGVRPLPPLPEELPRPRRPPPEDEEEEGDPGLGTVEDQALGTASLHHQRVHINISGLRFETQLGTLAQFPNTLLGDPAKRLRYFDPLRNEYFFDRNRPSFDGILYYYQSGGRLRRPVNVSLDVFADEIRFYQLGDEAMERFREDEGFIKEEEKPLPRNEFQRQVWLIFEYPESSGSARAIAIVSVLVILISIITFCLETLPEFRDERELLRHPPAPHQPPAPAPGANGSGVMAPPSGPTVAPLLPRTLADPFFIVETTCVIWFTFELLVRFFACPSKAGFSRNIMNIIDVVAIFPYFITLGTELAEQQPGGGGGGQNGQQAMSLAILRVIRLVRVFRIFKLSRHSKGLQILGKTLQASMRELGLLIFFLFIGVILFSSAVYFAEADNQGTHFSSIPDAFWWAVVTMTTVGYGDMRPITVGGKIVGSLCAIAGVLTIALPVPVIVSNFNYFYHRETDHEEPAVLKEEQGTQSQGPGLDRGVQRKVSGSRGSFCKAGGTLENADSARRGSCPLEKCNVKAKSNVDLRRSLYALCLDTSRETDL

In general, IC50 refers to the concentration that inhibits the measured activity by half. In the case of `COc1ccc(CCN2C(=O)C3(CCN(C(=O)OC(C)(C)C)CC3)NC2Cc2ccc(C(C)(C)C)cc2)cc1` (stereo not drawn) [Compound 96, 2-(4-tert-butylbenzyl)-3-[2-(4-methyoxyphenyl)ethyl]-4-oxo-1,3,8-triaza-spiro[4.5]decane-8-carboxylic acid tert-butyl ester], the concentration for half-maximal inhibition (IC50) with L-type calcium channels amounted to 12 µM. For the same compound, at HERG, the inhibition at 10 µM is 12%. At Kv1.5, the IC50 was found to be 0.393 µM and the inhibition at 1 µM stood at 96%.
For `COc1ccc(CCN2C(=O)C3(CCN(C(N)=O)CC3)N(C)C2c2ccc(C3CC3)cc2)cc1` (stereo not drawn) [Compound 7, 2-(4-Cyclopropylphenyl)-3-[2-(4-methoxyphenyl)ethyl]-1-methyl-4-oxo-1,3,8-triaza-spiro[4.5]decane-8-carboxylic acid amide], the IC50 is 9 µM in the data set on L-type calcium channels, 23.5 µM at HERG and 0.579 µM against Kv1.5. The inhibition at 10 µM at HERG amounted to 12%. The compound also returned an inhibition at 1 µM against Kv1.5 of 87%.
As to `CN1C(c2ccc(C3CC3)cc2)N(CCc2ccc(OC(F)(F)F)cc2)C(=O)C12CCN(C(N)=O)CC2` (stereo not drawn) [Compound 14, 2-(4-Cyclopropylphenyl)-3-[2-(4-trifluoromethoxyphenyl)ethyl]-1-methyl-4-oxo-1,3,8-triaza-spiro[4.5]decane-8-carboxylic acid amide], the IC50 with L-type calcium channels came out at 15 µM. Besides, the inhibition at 10 µM on HERG turned out to be 75%. In addition, the inhibition at 1 µM against Kv1.5 was 59%.
Turning to `COc1ccc(CCN2C(=O)C3(CCN(S(C)(=O)=O)CC3)N(C)C2c2ccc(C(C)(C)C)cc2)cc1` (stereo not drawn) [Compound 33, 2-(4-tert-Butylphenyl)-8-methanesulfonyl-3-[2-(4-methoxyphenyl)ethyl]-1-methyl-1,3,8-triaza-spiro[4.5]decan-4-one], in the data set with L-type calcium channels, the IC50 worked out at 25 µM. Further, the inhibition at 10 µM on HERG was found to be 54%. At Kv1.5, this compound registered an inhibition at 1 µM of 80%.
Consider `COc1ccc(CCN2C(=O)C3(CCN(C(=O)N4CCC4)CC3)N(C)C2c2ccc(C3CC3)cc2)cc1` (stereo not drawn) [Compound 21, 2-(4-cyclopropylphenyl)-3-[2-(4-methoxyphenyl)ethyl]-1-methyl-8-(azetidin-1-ylcarbonyl)-1,3,8-triaza-spiro[4.5]decan-4-one], for which the concentration for half-maximal inhibition (IC50) in the data set on L-type calcium channels came to 11 µM. Further, the inhibition at 10 µM on HERG turned out to be 54%. Also, the inhibition at 1 µM on Kv1.5 is 97%.
On to `CCONC(=O)N1CCC2(CC1)C(=O)N(CCc1ccc(OC)cc1)C(c1ccc(C3CC3)cc1)N2C` (stereo not drawn) [Compound 27, 2-(4-cyclopropylphenyl)-N-ethoxy-3-(4-methoxyphenethyl)-1-methyl-4-oxo-1,3,8-triazaspiro[4.5]decane-8-carboxamide], for which the IC50 with L-type calcium channels turned out to be 20 µM. Moreover, the inhibition at 10 µM at HERG was found to be 35%. Further, on Kv1.5, the inhibition at 1 µM turned out to be 87%.
As to `COc1ccc(C2N(CCCc3ccccc3)C(=O)C3(CCN(C(=O)C4CC4)CC3)N2C)cc1` (stereo not drawn) [Compound 46, 8-Cyclopropanecarbonyl-2-(4-methoxyphenyl)-3-(3-phenylpropyl)-1-methyl-1,3,8-triazaspiro-[4.5]decan-4-one], the IC50 in the data set on L-type calcium channels is 17 µM. In addition, the inhibition at 10 µM at HERG was determined as 32%. For the same compound, the inhibition at 1 µM on Kv1.5 was found to be 68%.
In the case of `COc1ccc(CCN2C(=O)C3(CCN(S(C)(=O)=O)CC3)N(C)C2c2ccc(C(F)(F)F)cc2)cc1` (stereo not drawn) [Compound 34, 2-(4-Trifluoromethylphenyl)-8-methanesulfonyl-3-[2-(4-methoxyphenyl)ethyl]-1-methyl-1,3,8-triaza-spiro[4.5]decan-4-one], the IC50 in the data set with L-type calcium channels came to 18 µM. In addition, at HERG, the inhibition at 10 µM amounted to 50%. On Kv1.5, this compound registered an inhibition at 1 µM of 80%.
In the case of `CN(C)C(=O)N1CCC2(CC1)C(=O)N(CCCc1ccccc1)C(c1ccc(C3CC3)cc1)N2C` (stereo not drawn) [Compound 53, 2-(4-Cyclopropylphenyl)-1-methyl-4-oxo-3-(3-phenylpropyl)-1,3,8-triazaspiro-[4.5]decane-8-carboxylic acid dimethylamide], the IC50 in the data set with L-type calcium channels was found to be 4.5 µM. In addition, the inhibition at 10 µM on HERG turned out to be 77%. The inhibition at 1 µM against Kv1.5 came out at 93%.
Take `COc1ccc(CCN2C(=O)C3(CCN(C(=O)NC(C)C)CC3)N(C)C2c2ccc(C3CC3)cc2)cc1` (stereo not drawn) [Compound 16, 2-(4-Cyclopropylphenyl)-3-[2-(4-methoxyphenyl)ethyl]-1-methyl-4-oxo-1,3,8-triaza-spiro[4.5]decane-8-carboxylic acid isopropylamide]: the half-maximal inhibitory concentration (IC50) in the data set with L-type calcium channels came out at 13 µM; against Kv1.5 it was 0.319 µM. The inhibition at 10 µM at HERG stood at 48%. On Kv1.5, the inhibition at 1 µM turned out to be 92%.
For `COc1ccc(CCN2C(=O)C3(CCN(C(=O)OC(C)(C)C)CC3)N(C)C2c2ccc(OC)cc2)cc1` (stereo not drawn) [Compound 37, tert-Butyl 2-(4-methoxyphenyl)-3-[2-(4-methoxyphenyl)ethyl]-1-methyl-4-oxo-1,3,8-triazaspiro[4.5]decane-8-carboxylate], in the data set with L-type calcium channels, the IC50 is 14 µM. For the same compound, the inhibition at 10 µM on HERG amounted to 12%. At Kv1.5, this compound came in with an inhibition at 1 µM of 83%.
For `CC(C)NC(=O)N1CCC2(CC1)C(=O)N(CCCc1ccccc1)C(c1ccc(C3CC3)cc1)N2C` (stereo not drawn) [Compound 52, 2-(4-Cyclopropylphenyl)-1-methyl-4-oxo-3-(3-phenylpropyl)-1,3,8-triazaspiro-[4.5]decane-8-carboxylic acid isopropyl amide], the half-inhibitory concentration (IC50) with L-type calcium channels turned out to be 12 µM. For the same compound, the inhibition at 10 µM at HERG is 79%. The compound further had an inhibition at 1 µM on Kv1.5 of 89%.
In the case of `COc1ccc(CCN2C(=O)C3(CCN(C(=O)OC(C)(C)C)CC3)NC2c2ccc(OC(F)F)cc2)cc1` (stereo not drawn) [Compound 62, 2-(4-Difluoromethoxyphenyl)-3-[2-(4-methoxyphenyl)ethyl]-4-oxo-1,3,8-triaza-spiro[4.5]decane-8-carboxylic acid tert-butyl ester], in the data set with L-type calcium channels, the half-inhibitory concentration (IC50) is 7.8 µM. Moreover, on HERG, the IC50 was found to be 4.6 µM and the inhibition at 10 µM was 62%. At Kv1.5, the IC50 came to 0.257 µM and the inhibition at 1 µM worked out at 93%.
In the case of `COc1ccc(CCN2C(=O)C3(CCN(S(C)(=O)=O)CC3)NC2c2ccc(C(C)(C)C)cc2)cc1` (stereo not drawn) [Compound 63, 2-(4-tert-Butylphenyl)-8-methanesulfonyl-3-[2-(4-methoxyphenyl)ethyl]-1,3,8-triaza-spiro[4.5]decan-4-one], in the data set with L-type calcium channels, the IC50 was 3 µM. For the same compound, the inhibition at 10 µM on HERG stood at 40%. The same compound came in with an inhibition at 1 µM at Kv1.5 of 73%.
Taken in the same sequence, the figures for `COc1ccc(CCN2C(=O)C3(CCN(C(=O)N4CCOCC4)CC3)N(C)C2c2ccc(C3CC3)cc2)cc1` (stereo not drawn) [Compound 24, 2-(4-Cyclopropylphenyl)-3-[2-(4-methoxyphenyl)ethyl]-1-methyl-8-(morpholin-4-ylcarbonyl)-1,3,8-triaza-spiro[4.5]decan-4-one] were 13 µM, 27% and 82%.
In the case of `CNC(=O)N1CCC2(CC1)C(=O)N(CCc1ccc(OC)cc1)C(c1ccc(C3CC3)cc1)N2C` (stereo not drawn) [Compound 8, 2-(4-Cyclopropylphenyl)-3-[2-(4-methoxyphenyl)ethyl]-1-methyl-4-oxo-1,3,8-triaza-spiro[4.5]decane-8-carboxylic acid methyl amide], in the data set on L-type calcium channels, the IC50 was found to be 11 µM. Besides, at HERG, the inhibition at 10 µM amounted to 25%. In addition, on Kv1.5, the IC50 came out at 0.35 µM and the inhibition at 1 µM stood at 91%.
`COc1ccc(CCN2C(=O)C3(CCN(C(=O)NN)CC3)N(C)C2c2ccc(C3CC3)cc2)cc1` (stereo not drawn) [Compound 80, 2-(4-cyclopropylphenyl)-3-[2-(4-methoxyphenyl)ethyl]-1-methyl-4-oxo-1,3,8-triazaspiro[4.5]decane-8-carbohydrazide]: the IC50 with L-type calcium channels turned out to be 19 µM. The inhibition at 10 µM on HERG stood at 24%. For the same compound, the inhibition at 1 µM against Kv1.5 worked out at 74%.
As to `COc1ccc(CCN2C(=O)C3(CCN(C(=O)N4CCCC4)CC3)N(C)C2c2ccc(C3CC3)cc2)cc1` (stereo not drawn) [Compound 23, 2-(4-Cyclopropylphenyl)-3-[2-(4-methoxyphenyl)ethyl]-1-methyl-8-(pyrrolidin-1-ylcarbonyl)-1,3,8-triaza-spiro[4.5]decan-4-one], in the data set with L-type calcium channels, the IC50 stood at 6.6 µM. At HERG, the IC50 amounted to 6.2 µM and the inhibition at 10 µM worked out at 77%. On Kv1.5, this compound gave an IC50 of 0.181 µM and an inhibition at 1 µM of 96%.
Take `COc1ccc(CCN2C(=O)C3(CCN(C(=O)c4ccno4)CC3)N(C)C2c2ccc(C3CC3)cc2)cc1` (stereo not drawn) [Compound 42, 2-(4-Cyclopropylphenyl)-8-(isoxazol-5-yl-carbonyl)-3-[2-(4-methoxyphenyl)ethyl]-1-methyl-1,3,8-triazaspiro[4.5]decan-4-one]: in the data set with L-type calcium channels, the IC50 worked out at 23 µM. The inhibition at 10 µM at HERG is 81%. At Kv1.5, the inhibition at 1 µM is 94%.

The values above are taken from patent US20070299072A1, “KV1.5 POTASSIUM CHANNEL INHIBITORS” (Wyeth, priority 2006, published 2007).
